{"source": "paper PMC10281804", "about": "“The structural basis of the talin–KANK1 interaction that coordinates the actin and microtubule cytoskeletons at focal adhesions” (Open Biology, 2023)", "key": {"[1]": {"system": "KANK1 localization to focal adhesions of NIH3T3 fibroblasts", "assay": "KANK1 localization in vin880-expressing cells treated with ROCK inhibitor", "type": "cell-based, mouse", "experimental": "NIH3T3 mouse fibroblasts and HEK293T human epithelial cells were obtained from the American Type Culture Collection (ATCC). The vinculin null and WT mouse embryonic fibroblasts (MEFs) originate from the Eileen Adamson laboratory. All cells were maintained in Dulbecco's Modified Eagle Medium (DMEM; Sigma) supplemented with 10% fetal bovine serum (FBS, Gibco), 1% L-glutamine (Sigma) and 1% non-essential amino acids (Sigma). Talin1&2 null cells were cultured in DMEM F-12 (Gibco) supplemented with 10% FBS, 1% L-glutamine, 1% non-essential amino acids and […] HEPES (Sigma). All cells were cultured at 37̊C supplied with 5% CO2 and 95% humidity. Transient transfections were performed using Lipofectamine LTX with Plus Reagent (Invitrogen) to NIH3T3 cells, Lipofectamine 2000 (Invitrogen) to talin null cells, and jetPRIME reagent (Polyplus) to MEFs and HEK293T cells, as per the manufacturer's instructions.\nFor fixed cell imaging, cells were cultured in glass-bottom dishes (IBL) coated with bovine fibronectin (Sigma) at a final concentration of 10 µg ml^−1. […]\n(§1) Images of fixed samples in PBS were acquired at room temperature using an Olympus IX83 inverted microscope equipped with a 60×/1.42 PlanApo N oil objective and a QImaging Retiga R6 CCD camera, controlled by Metamorph software. Samples were illuminated using LEDs (UV/Cyan/Green-Yellow/Red, Lumencor) for fluorescence excitation; a Sedat filter set (DAPI/FITC/TRITC/Cy5, Chroma, 89000) was used.\nFIJI-ImageJ [33] software was used to process all images. Cell-matrix adhesion size was quantified as described previously, by subtracting background signal using a rolling ball algorithm, followed by thresholding to select adhesion structures and the Analyze Particles function to quantify adhesions. […] Pearson's correlation coefficient of fluorescence signals (40 × 40 µm^2 square adhesion area) was measured by subtracting the background signal, followed by automatic thresholding and colocalization analysis using the Bioimaging and Optics Platform (BIOP) version JACoP plugin [34]. […]"}, "mCherry–KANK1": {"system": "mCherry–KANK1", "assay": "MTS colocalization of truncated or mutated talin constructs with KANK1", "type": "cell-based, human", "conditions": "MTS colocalization assay, cBAK-tagged talin constructs", "excerpt": "To examine the effect of these KANK1 mutations on talin interactions in cells, we next used a mitochondrial targeting system (MTS) which we previously used to screen for defined protein–protein interactions. In this assay, one protein is fused to a small peptide sequence from the pro-apoptotic protein BAK (cBAK) which leads to its insertion into the outer membrane of mitochondria. Proteins that interact with the cBAK-tagged protein will get recruited to mitochondria, and this recruitment can be verified either by visualizing colocalization using fluorescence microscopy (figure 4a) or by purification of mitochondria followed by detection of co-precipitates using biochemistry (figure 4b,c). […] To confirm that the interaction was meditated by the R7 domain, we performed the colocalization assays with truncated talin constructs. […]\nas §1"}}, "data": [{"compound": "C[C@@H](N)[C@H]1CC[C@H](C(=O)Nc2ccncc2)CC1", "note": "[Y-27632]", "values": [{"measurement": "KANK1 localization (in words)", "setting": "[1]; NIH3T3 cells expressing vin880 treated with Y-27632", "result": "KANK1 colocalized with paxillin in FAs throughout the whole FA structure"}, {"measurement": "Pearson's mean correlation coefficient of KANK1/paxillin overlap", "setting": "[1]; NIH3T3 with GFP–vin880 and mCherry–KANK1, Y-27632 50 µM, 60 min, 20 images (40 × 40 µm^2) per group, ± s.d., water control r = 0.59 ± 0.05, p < 0.001 (Welch's t-test)", "result": "0.82 ± 0.04"}, {"measurement": "Percentage of belt-positive FAs", "setting": "[1]; NIH3T3 with GFP–vin880 and mCherry–KANK1, Y-27632 50 µM, 60 min, FAs over 0.3 µm^2, n = 17, ± s.d., water control 17.90 ± 3.27% (n = 28), p < 0.001 (Welch's t-test)", "result": "0.02 ± 0.10", "unit": "%"}]}, {"compound": "GFP–talin1G1404L–cBAK: GFP–talin1–cBAK with the R7 G1404L mutation", "values": [{"measurement": "colocalization of talin construct with KANK1", "setting": "mCherry–KANK1", "result": "prevented colocalization"}]}]}
